Data from US5912183A, “Peptide inhibitors of mitogenesis and motogenesis” (Pharmacia & Upjohn S.p.A., priority 1993, dated 1999).
Residues, ends and D or L forms follow the SMILES beside them.

Assays:
[1] = tested on: N- and C-SH2 domains of p85; assay: BIAcore inhibition of binding of GST-SH2 domains to immobilized PDGF receptor phosphopeptide Y751; parameters: species or system bovine; details: range of phosphopeptide concentrations; 25° C.; FIG. 7
Procedure: FIG. 7. Evaluation of the relative affinities of phosphotyrosine 1313, 1349 and 1356 for the N- and C- SH2 domains of p85. Affinities were determined by biospecific interaction analysis with the BIAcore instrument (Jonsson, U., Fagerstam, L., Roos, H., Ronnberg, J., Sjolander, Stenber, E., Stahlberg, R. Urbaniczky, C., Ostlin, H., and Malmquist. 1991. Surface plasmon reasonance and microfluidics for real time biospecific interaction analysis. Biotechniques 11: 520-527; Jonsson, U. and M. Malmquist. 1992. Real time biospecific analysis. The integration of surface plasmon reasonance detection, general biospecific interface chemistry and microfluidics into one analytical system p. 291-336. In F. Turner (ed), Advances in Biosensors, vol. 2 JAI Press, London; Karlsson, R., Michaelsson, A., and L. Mattsson. 1991. Kinetic analysis of monoclonal antibody-antigen interactions with a new biosensor based analytical system. J. Immunol. Meth. 145: 229-246).
Relative affinities were determined by measuring the ability of the phosphopeptides to inhibit the interaction of the SH2 domains with an immobilized phosphopeptide (DMSKDESVDY*VPMLDMK) (SEQ. ID NO: 26) which includes Y751 in the human PDGF receptor. Panel A and B show the results of these measurements, expressed as % inhibition of binding to phosphopeptide Y751.
GST-SH2 domain fusion proteins. The N- and C-SH2 domains of the bovine PI 3-kinase p85 subunit (amino acids 314-431 and 612-722) were obtained by polymerase chain reaction and cloned into the pGEX-2 bacterial expression vector (Smith, D. B., and Johnson K. S., Gene 67: 31-40 (1988).
Glutathione-S-transferase (GST)-SH2 fusion proteins were purified from bacterial lysates by glutathione affinity chromatography (Panayotou, G., et al. EMBO J., 11: 4261-4272 (1992)). Amino acid analysis on an Applied Biosystems 420A analyzer was used to determine the concentration of the recombinant proteins.
Analysis of the interaction of Y1349 and Y1356 with the p85 N- and C- SH2 domains using the BIAcore. […]

[2] = target: T1, binding of p85 to HGF/SF receptor (Bos taurus, UniProt P23727); assay: Competition of phosphopeptides with p85 for association with immobilized recombinant HGF/SF receptor (in vitro kinase assay readout); parameters: species or system human; details: phosphopeptide 10 μM; p85 from Sf9 lysates; FIG. 1
T1 construct: made in house; host or cells: Sf9 insect cells (baculovirus), for both p85 and the receptor
Procedure: FIG. 1. Inhibition of binding of p85 to HGF/SF receptor by tyrosine-phosphorylated peptides. Recombinant HGF/SF receptor was purified by immunoprecipitation from baculovirus-infected Sf9 cells using a rabbit polyclonal antiserum and phosphorylated with cold ATP. Lysates of Sf9 cells expressing p85 were pre-incubated with each of the phosphopeptides (10 μM). The lysates were then allowed to associate with immobilized recombinant HGF/SF receptors. Following association the complex was washed and receptor-bound p85 was detected by an in vitro kinase assay, as described in Materials and Methods of Example 4. The phosphopeptides are identified by the number of the amino terminal tyrosine.
FIG. 2. Inhibition of binding of p85 to HGF/SF receptor with different concentrations of tyrosine-phosphorylated peptides. The phosphopeptides which efficiently out-competed p85 binding to the HGF/SF receptor (FIG. 1) were used at increasing concentrations (10 nM, 100 nM, 1 μM from left to right) to define their relative affinities for p85. Conditions of the experiment were as in FIG. 1. Phosphopeptide 1365 was used as a negative control for p85 interaction.
In vitro association experiments. Sf9 cells expressing the recombinant HGF/SF receptor (approximately 4×10^6 cells/point) were lysed 36 hours after infection in buffer A (10 mM Tris-HCl buffer pH 7.5, 10% glycerol, 1% Triton X-100, 150 mM NaCl, 5 mM EDTA), supplemented with 0.2 mM phenyl-methylsulfonyl fluoride, 1 μg/ml leupeptin, 0.1 TIU/ml aprotinin and 1 μg/ml pepstatin. Lysates were clarified at 15,000×g at 4° C. for 15 minutes and the supernatants immunoprecipitated after 2 hours incubation with anti-Met antibodies coupled to Protein A-Sepharose. Immunocomplexes were washed three times with buffer A, once with buffer B (10 mM Tris-HCl pH 7.4, 100 mM NaCl, 1 mM EDTA) and once with buffer C (25 mM 4-(2-hydroxyethyl)-1-piperazine-ethanesulfonic acid (HEPES) buffer pH 7.2, 100 mM NaCl, 5 mM MgCl2). Samples were pre-phosphorylated by incubation for 15 minutes at 25° C. in buffer C with 10 μM unlabelled ATP and then washed three times with cold buffer A supplemented with 1 mM sodium ortho-vanadate. Association between the immobilized receptor and the baculovirus-expressed p85 was carried out as previously described (Bardelli, A., et al., Oncogene 7: 1973-1978 (1992)). For the association experiments with the PI 3-kinase holoenzyme three days serum-starved A549 cells (approx. 2×10^6 cells/point) were used as a source of PI 3-kinase. A549 cells were Dounce-homogenized in MOPS buffer (20 mM 3-(N-morpholino)propanesulfonic acid) (pH 7.5), 1 mM MgCl2, 0.1 mM EDTA, 200 mM sucrose, 1 mM sodium ortho-vanadate), supplemented with 0.2 mM phenylmethylsulfonyl fluoride, 1 μg/ml leupeptin, 0.1 TIU/ml aprotinin and 1 μg/ml pepstatin. Homogenates were centrifuged at 100,000×g for 20 minutes at 4° C. When checking for the ability of phosphopeptides to block the association with the receptor, cell lysates were pre-incubated with the phosphopeptides for 1 hour at 4° C. prior to incubation with the immobilized recombinant HGF/SF receptor. Following association, immunocomplexes were washed three times with buffer A, twice with buffer D (0.5M LiCl, 100 mM Tris-HCl pH 7.6), and twice with buffer B.
The presence of the p85 subunit of the PI 3-kinase in the receptor immunoprecipitate was determined by: i) labelling of the receptor and associated proteins with [γ-^32 P]ATP by in vitro kinase assay; ii) Western immunoblotting; iii) PI 3-kinase activity assay.
In vitro kinase assay. Receptor-associated proteins were labelled in 20 μl of buffer C, in the presence of 10 μCi [γ-^32 P]ATP (specific activity 7,000 Ci/Mm; Amersham) at 25° C. for 15 minutes. The reaction was stopped by adding 1 ml of ice-cold Buffer A without protease inhibitors. Samples were washed three times with cold buffer A. The labelled immunocomplexes were eluted from Protein A-Sepharose in boiling Laemmli buffer. […]

T1 sequence (P23727 whole entry): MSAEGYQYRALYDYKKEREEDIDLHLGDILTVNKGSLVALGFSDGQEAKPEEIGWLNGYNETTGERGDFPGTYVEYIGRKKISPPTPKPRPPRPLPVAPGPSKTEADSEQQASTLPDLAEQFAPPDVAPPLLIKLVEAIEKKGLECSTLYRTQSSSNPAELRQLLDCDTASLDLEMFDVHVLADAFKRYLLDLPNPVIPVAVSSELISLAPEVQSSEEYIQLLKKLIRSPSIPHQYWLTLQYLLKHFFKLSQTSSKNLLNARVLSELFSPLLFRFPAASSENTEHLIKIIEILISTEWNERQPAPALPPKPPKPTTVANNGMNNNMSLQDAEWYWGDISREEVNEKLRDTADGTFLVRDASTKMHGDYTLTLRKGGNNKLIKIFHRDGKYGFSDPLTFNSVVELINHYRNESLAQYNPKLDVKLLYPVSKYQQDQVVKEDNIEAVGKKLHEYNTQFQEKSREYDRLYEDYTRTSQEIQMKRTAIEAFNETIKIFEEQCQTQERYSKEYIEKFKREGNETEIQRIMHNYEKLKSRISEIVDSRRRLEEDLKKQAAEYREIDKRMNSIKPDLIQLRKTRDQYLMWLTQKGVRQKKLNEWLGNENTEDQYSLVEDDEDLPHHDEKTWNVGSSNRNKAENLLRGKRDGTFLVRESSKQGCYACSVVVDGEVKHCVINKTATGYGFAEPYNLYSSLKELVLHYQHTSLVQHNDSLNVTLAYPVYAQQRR

CC(C)[C@H](NC(=O)[C@H](CS)NC(=O)[C@H](CCCCN)NC(=O)[C@@H](NC(=O)[C@H](CC(N)=O)NC(=O)[C@@H](NC(=O)[C@@H](N)Cc1ccc(OP(=O)(O)O)cc1)C(C)C)C(C)C)C(=O)N[C@@H](C)C(=O)O [H-Tyr*-Val-Asn-Val-Lys-Cys-Val-Ala-OH] (HELM PEPTIDE1{[N[C@@H](Cc1ccc(OP(=O)(O)O)cc1)C(=O)[*:2]].V.N.V.K.C.V.A}$$$$V2.0)
Apparent relative affinity: inhibition of binding of p85 N- and C-SH2 domains to phosphopeptide Y751 [1]: inhibit binding of p85 N- and C-SH2 domains to phosphopeptide Y751, but at higher concentrations | Inhibition of binding of p85 to HGF/SF receptor [2]: efficiently outcompeted p85

CC(C)[C@H](NC(=O)[C@H](Cc1c[nH]cn1)NC(=O)[C@@H](NC(=O)[C@@H](N)Cc1ccc(OP(=O)(O)O)cc1)C(C)C)C(=O)N[C@@H](CC(N)=O)C(=O)N[C@@H](C)C(=O)N[C@H](C(=O)N[C@@H](Cc1ccc(O)cc1)C(=O)O)[C@@H](C)O [H-Tyr*-Val-His-Val-Asn-Ala-Thr-Tyr-OH] (HELM PEPTIDE1{[N[C@@H](Cc1ccc(OP(=O)(O)O)cc1)C(=O)[*:2]].V.H.V.N.A.T.Y}$$$$V2.0)
Apparent relative affinity: inhibition of binding of p85 N- and C-SH2 domains to phosphopeptide Y751 [1]: inhibit binding of p85 N- and C-SH2 domains to phosphopeptide Y751, but at higher concentrations | Inhibition of binding of p85 to HGF/SF receptor [2]: efficiently outcompeted p85
